In patent US20250090996A1, “ACID GAS REMOVAL METHOD, ACID GAS ABSORBENT, AND ACID GAS REMOVAL APPARATUS” (KABUSHIKI KAISHA TOSHIBA, priority 2023, published 2025):

Assays:
[1] = S concentration of aqueous phase after adding sulfuric acid (ICP); type: physicochemical; conditions: 1 ml of 1 mol/l sulfuric acid added to 30 ml of mixture with water (volume ratio 50:50), after stirring
Description: When the compound (a-1) and water were blended at a volume ratio of 50:50, two phases of an organic phase as an upper phase and an aqueous phase as a lower phase were formed. One (1) ml of 1 mol/1 sulfuric acid was added to 30 ml of the mixture, and, after stirring, the S concentration of the aqueous phase was measured by ICP. As a result, the S concentration was 17.6 mg-S/L (Reference Example 1).

[2] = Phase state of amine/water mixture before and after carbon dioxide absorption; type: physicochemical; conditions: volume ratio 50:50
[3] = as above; type: physicochemical; conditions: for phase state after absorbing carbon dioxide: mixture with water 50:50 after CO2:N2=1:9 bubbling; for phase state when blended with water: ratio 50:50, before carbon dioxide absorption, organic upper phase, aqueous lower phase
Text: Here, in the present embodiment, the “state in which the organic phase and the aqueous phase are phase-separated” means that, for example, a mixture of water and a liquid amine has a relationship in which a state in which the organic phase and the aqueous phase are phase-separated, in other words, a boundary between the organic phase and the aqueous phase can be visually confirmed. Here, in the present embodiment, the organic phase is a phase containing the liquid amine compound as a main component in a state of being phase-separated, and is also a phase containing a high concentration of the liquid amine compound in a state of being separated from the acid gas. The aqueous phase is a phase containing water as a main component in a state of being phase-separated. At a high carbon dioxide concentration, the acid gas absorbent has an increased amount of the liquid amine compound to be dissolved in water, and the liquid amine compound is dissolved in an aqueous solution. In the acid gas absorbent, the organic phase and the aqueous phase are not phase-separated in this state (the acid gas absorbent has one phase). At a low acid gas concentration, the acid gas absorbent is decreased in solubility of the liquid amine compound in water, and is phase-separated into an aqueous phase and an organic phase containing a high concentration of the liquid amine compound. When the acid gas absorbent is phase-separated, the organic phase and the aqueous phase typically form complete two phases. However, in the present embodiment, even when it is not completely phase-separated, the organic phase and the aqueous phase are referred to as “two phases” in a case where a boundary between the phases can be confirmed.
Hereinafter, Examples of the embodiment will be described. In the following Examples, conditions before heating the acid gas absorbent were 25° C. and atmospheric pressure.
(§1) When a compound (a-1) of General Formula (a) wherein R^1 and R^3 are 1-ethylpropyl groups and R^2 is C3 linear alkyl and water were blended at a mass ratio of 50:50, two phases of an organic phase (amine compound phase) as an upper phase and an aqueous phase as a lower phase were formed. […] The temperature in the column was changed in a range of 60° C. to 70° C., and an inert gas was caused to flow at 50 ml/min. […] Here, the amount of carbon dioxide saturated and absorbed is a value obtained by measuring the amount of inorganic carbon in the acid gas absorbent with an infrared gas concentration measuring apparatus. The amount of this compound dissolved was 18,000 mg/L at 25° C. and under atmospheric pressure. The amount of the compound dissolved was determined by sampling the lower phase of the two phases fractionated, measuring the total organic carbon concentration with a total organic carbon meter TOC-L (trade name) manufactured by Shimadzu Corporation, and converting it into the amount of amine dissolved from the chemical formula of the compound (a-1).

[4] = Regeneration (carbon dioxide release) on heated molecular sieve 4A column; conditions: column 60° C. to 70° C., inert gas 50 ml/min, fractionated
Description: as §1

[5] = Amount of compound dissolved in water (total organic carbon of lower aqueous phase); type: physicochemical; conditions: 25° C., atmospheric pressure, converted from total organic carbon of lower phase
Text: An acid gas absorbent according to the embodiment contains an amine compound and water, as main agents for absorbing an acid gas. The amine compound used here is a liquid amine compound having a secondary amine structure. An acid gas remover contains a mixture of the liquid amine compound and water, and an amount of a salt to be dissolved in water is larger than an amount of the liquid amine compound itself to be dissolved in water, the salt being formed from the liquid amine compound and the acid gas. Here, the liquid amine compound is an amine compound that is liquid at 25° C. under atmospheric pressure. An amount of the liquid amine compound to be dissolved at room temperature is generally small, and, for example, an amount of the liquid amine compound to be dissolved in water at 25° C. is 50,000 mg/L or less. Upon contact of the liquid amine compound with the acid gas, a salt is formed, and is ionized when water coexists, to increase the dissolved amount. The amount of such a salt to be dissolved is, for example, 2 times or more, preferably 5 times or more, and more preferably 10 times or more the amount of the liquid amine to be dissolved as a base at 25° C. In the present embodiment, the dissolved amount (mg/L) is a mass (mg) of the liquid amine based on a total volume (L) of water and the liquid amine compound.
as §1

Row | Compound | S concentration of the aqueous phase [1] [mg-S/L] | phase state when blended with water [2] | phase state after absorbing carbon dioxide [3] | phase state when blended with water [3] | phase state of mixture after passing through column [4] | amount of compound dissolved [5]
1 | CC(C)CC(C)NCCCN(C)CCCNC(C)CC(C)C (stereo not shown) [compound (b-2)] | – | – | formed one phase | two phases | two phases were formed | 4,000 mg/L
2 | CC(C)N(C)C(C)C [diisopropylmethylamine, reference compound] | – | – | – | two phases | – | –
3 | CC(C)CC(C)NCCCNCCCNC(C)CC(C)C (stereo not shown) [compound (b-3)] | – | – | formed one phase | two phases | two phases were formed | 11,000 mg/L

Further lines, results first:

Row | S concentration of the aqueous phase [1] [mg-S/L] | phase state when blended with water [2] | phase state after absorbing carbon dioxide [3] | phase state when blended with water [3] | phase state of mixture after passing through column [4] | amount of compound dissolved [5] | Compound
4 | 17.6 | two phases | formed one phase | two phases | two phases were formed | 18,000 mg/L | CCC(CC)NCCCNC(CC)CC [compound (a-1)]
5 | – | – | formed one phase | two phases | two phases were formed | 22,000 mg/L | CCC(CC)NCCCN(C)CCCNC(CC)CC [compound (b-1)]
